Results as given in ChEMBL document CHEMBL1201862, “PubChem BioAssay data set” (2004).
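Cultured in 96-well plates, cells were exposed to test compound for 48 hours across five concentrations. Here, GI50 denotes the concentration required for 50% inhibition of growth.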 The source made the active and inactive calls. Rule as the data show it: active = GI50 up to about 1.1 µM and inactive = higher.

Legend:
Assay in all cases: NCI tumour cell line growth inhibition, 48 h
[1] = test system: HT-29
[2] = test system: OVCAR-5
[3] = test system: MDA-MB-435
[4] = test system: DU-145
[5] = test system: SW-620
[6] = test system: MCF7
[7] = test system: HCT-15
[8] = test system: 786-0
[9] = test system: UO-31
[10] = test system: ACHN
[11] = test system: SF-295
[12] = test system: CAKI-1
[13] = test system: PC-3
[14] = test system: NCI/ADR-RES
[15] = test system: SK-MEL-5
[16] = test system: A498
[17] = test system: OVCAR-3
[18] = test system: SNB-75
[19] = test system: T47D

SMILES | GI50 [1] | GI50 [2] | GI50 [3] | GI50 [4] | GI50 [5] | GI50 [6] | GI50 [7] | GI50 [8] | GI50 [9] | GI50 [10] | GI50 [11] | GI50 [12] | GI50 [13] | GI50 [14] | GI50 [15] | GI50 [16] | GI50 [17] | GI50 [18] | GI50 [19]
O=C1C=C(c2c(-c3ccccc3)[nH]c3ccccc23)C(=O)N1c1ccccc1 | 7.18 µM (inactive) | 14.8 µM (inactive) | 4.02 µM (inactive) | 3.52 µM (inactive) | 5.12 µM (inactive) | 6.19 µM (inactive) | 5.38 µM | 8.65 µM (inactive) | 13.9 µM (inactive) | 13.9 µM (inactive) | 10.6 µM (inactive) | 5.53 µM (inactive) | 7.78 µM (inactive) | 8.45 µM (inactive) | 8.75 µM (inactive) | 10.6 µM (inactive) | 4.41 µM (inactive) | – | –
Cc1[nH]nc(C(=O)N/N=C/c2ccccc2Cl)c1/N=N\N(C)C | > 53.3 µM (inactive) | 18 µM (inactive) | > 100 µM (inactive) | 4.28 µM (inactive) | > 33 µM (inactive) | – | > 100 µM | 5.04 µM (inactive) | > 57.8 µM (inactive) | > 54.6 µM (inactive) | > 54 µM (inactive) | > 32.9 µM (inactive) | 5.7 µM (inactive) | 6.1 µM (inactive) | 14.6 µM (inactive) | 2.19 µM (inactive) | 20.8 µM (inactive) | > 31 µM (inactive) | –
CC1CCOc2ccc(cc2)/C=N\c2ccc(cc2)CCc2ccc(cc2)/N=C\c2ccc(cc2)OCC1 | > 100 µM (inactive) | > 100 µM (inactive) | > 100 µM (inactive) | > 100 µM (inactive) | > 100 µM (inactive) | > 100 µM (inactive) | > 100 µM | > 100 µM (inactive) | > 100 µM (inactive) | > 100 µM (inactive) | 70.3 µM (inactive) | > 100 µM (inactive) | > 100 µM (inactive) | > 100 µM (inactive) | > 100 µM (inactive) | > 100 µM (inactive) | > 100 µM (inactive) | 24.1 µM (inactive) | –
CN(C)NC1=NS(=O)(=O)c2cc3c(=O)n(C)[nH]c3cc2S1 | > 10 µM (inactive) | > 10 µM (inactive) | – | > 10 µM (inactive) | > 10 µM (inactive) | 5.05 µM (inactive) | > 10 µM | > 10 µM (inactive) | > 10 µM (inactive) | > 10 µM (inactive) | > 10 µM (inactive) | > 10 µM (inactive) | > 10 µM (inactive) | > 10 µM (inactive) | > 10 µM (inactive) | > 10 µM (inactive) | > 10 µM (inactive) | > 10 µM (inactive) | > 10 µM (inactive)
CSc1nc(NC2CC2)c2c(n1)Sc1nc3ccccc3n1N=C2 | 26.3 µM (inactive) | 37.2 µM (inactive) | 35.5 µM (inactive) | 23.5 µM (inactive) | 26.6 µM (inactive) | 26.6 µM (inactive) | 28.4 µM | 6.08 µM (inactive) | 16.5 µM (inactive) | 11 µM (inactive) | – | 34.9 µM (inactive) | 29.5 µM (inactive) | 20.3 µM (inactive) | 17 µM (inactive) | 10.5 µM (inactive) | 17.3 µM (inactive) | – | –
Nc1ncnc2c1ncn2C1OC(CO)C(O)C(O)C1O (centres undefined) | > 100 µM (inactive) | > 100 µM (inactive) | > 100 µM (inactive) | > 100 µM (inactive) | > 100 µM (inactive) | > 100 µM (inactive) | > 100 µM | > 100 µM (inactive) | > 100 µM (inactive) | > 100 µM (inactive) | > 100 µM (inactive) | > 100 µM (inactive) | > 100 µM (inactive) | > 100 µM (inactive) | > 100 µM (inactive) | > 100 µM (inactive) | > 100 µM (inactive) | > 100 µM (inactive) | –
